Drawing on patent US7820670B2 (Alcon Research, Ltd., priority 2006, dated 2010), this text covers IC50 for 37 compounds.

In test [1] the target is T1, ROCK 2 (Homo sapiens, UniProt O75116).
T1 construct: purchased Molecular Devices, Sunnyvale, Calif
Put plainly: Rho kinase assay (IMAP ROCK-II kit, fluorescence polarization). The format is biochemical. Background: Polarisation of emitted light reports the rotation of a fluorescent probe.
Procedure: (§1) The rho kinase assays were performed using a Biomek 2000 Robotic Workstation (Beckman Instruments, Palo Alto, Calif.) in a 96-well plate format. The assay was performed utilizing the IMAP ROCK-I and ROCK-II kits (Molecular Devices, Sunnyvale, Calif.) as follows. […] The substrate, enzyme, and ATP dilutions were made with the reaction buffer provided by the vendor. Test compounds were diluted in 10:10 DMSO-ethanol (vol/vol). For the actual assay, the various components were added into black, clear bottom, 96-well plates (Costar, Corning, N.Y.) in a final volume of 20μl per well. After the enzyme reaction (60 min at 23° C.), 60 μl of the binding solution was added per well and incubated for an additional 30 minutes in the dark at 23° C. Fluorescence polarization of the reaction mixtures was then measured on the Analyst™ HT instrument (Molecular Devices, Sunnyvale, Calif.).

Test [2] has as its target ROCK 1 (Homo sapiens, UniProt Q13464). Put plainly: Rho kinase assay (IMAP ROCK-I kit, fluorescence polarization).
Procedure: as §1
Setting [3] is: substrate 200 nM, ATP 10 μM, 60 min at 23° C.

Where a name gives a salt, the structure may show the parent alone. Read-outs that look alike come from different tables or passages of the source.

T1 sequence (O75116 whole entry, species assumed): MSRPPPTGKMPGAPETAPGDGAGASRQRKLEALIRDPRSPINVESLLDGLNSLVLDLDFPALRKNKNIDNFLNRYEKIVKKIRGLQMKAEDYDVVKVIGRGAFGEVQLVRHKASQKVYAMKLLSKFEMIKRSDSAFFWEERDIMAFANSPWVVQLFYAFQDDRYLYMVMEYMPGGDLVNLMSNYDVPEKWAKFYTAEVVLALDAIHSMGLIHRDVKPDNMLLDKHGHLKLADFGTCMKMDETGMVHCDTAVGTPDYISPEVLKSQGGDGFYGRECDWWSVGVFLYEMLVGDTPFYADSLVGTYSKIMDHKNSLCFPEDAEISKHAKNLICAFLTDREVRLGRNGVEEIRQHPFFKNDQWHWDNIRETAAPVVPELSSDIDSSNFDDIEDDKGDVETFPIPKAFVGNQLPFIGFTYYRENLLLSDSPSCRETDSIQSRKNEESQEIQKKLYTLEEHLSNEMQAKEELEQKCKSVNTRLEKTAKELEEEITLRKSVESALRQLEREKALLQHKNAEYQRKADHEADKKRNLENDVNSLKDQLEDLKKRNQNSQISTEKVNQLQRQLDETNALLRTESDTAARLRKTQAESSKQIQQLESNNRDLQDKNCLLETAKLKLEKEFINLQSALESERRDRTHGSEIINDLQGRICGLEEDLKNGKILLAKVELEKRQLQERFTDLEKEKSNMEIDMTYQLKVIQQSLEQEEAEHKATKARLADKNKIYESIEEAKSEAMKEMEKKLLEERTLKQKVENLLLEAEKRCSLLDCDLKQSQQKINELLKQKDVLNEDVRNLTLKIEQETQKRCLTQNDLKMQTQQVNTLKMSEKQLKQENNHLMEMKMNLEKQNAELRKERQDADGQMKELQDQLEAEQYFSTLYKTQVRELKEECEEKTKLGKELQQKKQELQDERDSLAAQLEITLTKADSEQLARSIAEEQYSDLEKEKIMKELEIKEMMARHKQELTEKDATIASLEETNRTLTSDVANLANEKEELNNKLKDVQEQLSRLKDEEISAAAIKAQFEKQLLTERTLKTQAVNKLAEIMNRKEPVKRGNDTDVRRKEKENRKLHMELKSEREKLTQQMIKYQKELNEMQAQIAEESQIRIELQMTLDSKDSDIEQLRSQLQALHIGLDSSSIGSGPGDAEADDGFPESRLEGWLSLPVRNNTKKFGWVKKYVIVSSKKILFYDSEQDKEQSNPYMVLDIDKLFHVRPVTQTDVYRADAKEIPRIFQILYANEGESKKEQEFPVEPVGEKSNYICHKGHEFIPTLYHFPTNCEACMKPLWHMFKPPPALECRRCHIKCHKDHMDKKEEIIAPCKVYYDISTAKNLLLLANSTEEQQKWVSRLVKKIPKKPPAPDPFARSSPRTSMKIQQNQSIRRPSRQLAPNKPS
ROCK 1, sequence (Q13464 whole entry, species assumed): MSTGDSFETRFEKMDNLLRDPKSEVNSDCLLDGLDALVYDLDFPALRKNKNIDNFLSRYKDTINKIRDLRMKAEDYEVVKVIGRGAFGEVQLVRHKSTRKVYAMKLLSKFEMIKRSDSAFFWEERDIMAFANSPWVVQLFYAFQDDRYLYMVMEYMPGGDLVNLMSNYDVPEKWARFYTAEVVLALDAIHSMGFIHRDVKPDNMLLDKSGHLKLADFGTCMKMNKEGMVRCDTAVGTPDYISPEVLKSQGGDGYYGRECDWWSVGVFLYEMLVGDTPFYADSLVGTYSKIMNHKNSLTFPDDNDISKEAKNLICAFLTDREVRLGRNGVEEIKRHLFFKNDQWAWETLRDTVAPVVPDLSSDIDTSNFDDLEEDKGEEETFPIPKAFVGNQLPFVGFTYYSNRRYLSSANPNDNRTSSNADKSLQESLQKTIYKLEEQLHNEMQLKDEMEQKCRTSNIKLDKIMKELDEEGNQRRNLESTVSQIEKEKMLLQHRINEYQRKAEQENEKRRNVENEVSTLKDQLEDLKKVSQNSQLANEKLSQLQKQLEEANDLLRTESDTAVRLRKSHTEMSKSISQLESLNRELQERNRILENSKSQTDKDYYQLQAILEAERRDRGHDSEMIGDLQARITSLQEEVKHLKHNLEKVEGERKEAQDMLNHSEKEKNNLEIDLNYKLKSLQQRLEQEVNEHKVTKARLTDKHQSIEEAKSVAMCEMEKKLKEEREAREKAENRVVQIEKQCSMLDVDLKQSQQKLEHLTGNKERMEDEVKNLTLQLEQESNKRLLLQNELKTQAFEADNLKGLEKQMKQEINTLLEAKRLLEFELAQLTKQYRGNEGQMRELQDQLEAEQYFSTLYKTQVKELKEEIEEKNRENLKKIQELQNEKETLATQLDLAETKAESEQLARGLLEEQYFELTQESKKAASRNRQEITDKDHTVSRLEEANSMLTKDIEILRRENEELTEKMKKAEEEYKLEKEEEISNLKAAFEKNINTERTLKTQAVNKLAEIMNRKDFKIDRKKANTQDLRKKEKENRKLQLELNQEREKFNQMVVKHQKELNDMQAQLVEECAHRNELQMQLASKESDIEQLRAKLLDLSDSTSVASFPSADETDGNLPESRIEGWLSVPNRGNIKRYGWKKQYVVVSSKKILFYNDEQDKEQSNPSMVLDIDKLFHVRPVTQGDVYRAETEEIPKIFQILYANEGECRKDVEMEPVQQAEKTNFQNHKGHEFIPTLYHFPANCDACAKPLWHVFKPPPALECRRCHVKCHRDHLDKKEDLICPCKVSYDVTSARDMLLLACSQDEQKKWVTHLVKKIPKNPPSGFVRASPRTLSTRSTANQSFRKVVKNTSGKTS

Broadly, the IC50 is the concentration needed to halve the response being measured. Low values mean inhibition by little substance, high ones a need for much substance. `c1cc(-c2cnc3ccc(N4CCCNCC4)nn23)ccn1` [Example 54, 6-(1,4-Diazepan-1-yl)-3-pyridin-4-yl-imidazo [1,2-b]pyridazine hydrochloride]: the IC50 in test [1] (setting [3]) turned out to be 0.33 µM; in test [2] it was 0.93 µM.

`CCOCc1cnc2ccc(NCCCN3CCOCC3)nn12` [Example 31, 3-(Ethoxymethyl)-N-(3-morpholinopropyl)imidazo[1,2-b]pyridazin-6-amine hydrocloride]: the IC50 in test [1] (setting [3]) and in test [2] was above 100 µM each time.

For the compound `c1ccc(CNc2ccc3nccn3n2)nc1` [Example 33, N-(Pyridin-2-ylmethyl)imidazo[1,2-b]pyridazin-6-amine hydrochloride], the IC50 was 13 µM in test [1] (setting [3]) and above 100 µM in test [2].

Regarding `C1=C(c2cnc3ccc(NCCCN4CCOCC4)nn23)CCCC1` [Example 20, 3-Cyclohexenyl-N-(3-morpholinopropyl)imidazo[1,2-b]pyridazin-6-amine hydrochloride], the IC50 was above 100 µM in test [1] (setting [3]) and 55 µM in test [2].

Regarding `c1n[nH]cc1-c1cnc2ccc(N3CCCNCC3)nn12` [Example 56, 6-Perhydro-1,4-diazepin-1-yl-3-(1H-pyrazol-4-yl)-imidazo[1,2-b]pyridazine dihydrochloride], the 50% inhibitory concentration (IC50) came out at 6.7 µM in test [1] (setting [3]) and 18 µM in test [2].

For the compound `COc1ccc(-c2cnc3ccc(NCc4ccccn4)nn23)cc1` [Example 1, 3-(4-Methoxyphenyl)-N-(pyridin-2-ylmethyl)imidazo[1,2-b]pyridazin-6-amine], the IC50 in test [1] (setting [3]) came to 69 µM; in test [2], 17 µM.

`c1cncc(-c2cnc3ccc(N4CCCNCC4)nn23)c1` [Example 57, 6-Perhydro-1,4-diazepin-1-yl-3-pyridin-3-yl-imidazo[1,2-b]pyridazine trihydrochloride]: the IC50 in test [1] (setting [3]) worked out at 23 µM; in test [2], 63 µM.

For the compound `CCCCC#Cc1cnc2ccc(NCc3ccccn3)nn12` [Example 28, 3-(Hex-1-ynyl)-N-(pyridin-2-ylmethyl)imidazo[1,2-b]pyridazin-6-amine hydrochloride], the IC50 in test [1] (setting [3]) and in test [2] was above 100 µM throughout.

For `CCCC/C=C\c1cnc2ccc(NCCCN3CCOCC3)nn12` [Example 27, (Z)-3-(Hex-1-enyl)-N-(3-morpholinopropyl)imidazo[1,2-b]pyridazin-6-amine hydrochloride], the concentration for half-maximal inhibition (IC50) in test [1] (setting [3]) turned out to be 88 µM; in test [2], 43 µM.

For the compound `NC(=O)c1ccc(-c2cnc3ccc(N4CCCNCC4)nn23)cc1` [Example 58, 4-(6-Perhydro-1,4-diazepin-1-yl-imidazo[1,2-b]pyridazin-3-yl)benzamide dihydrochloride], the IC50 in test [1] was determined as 16 µM; in test [2], 56 µM.

Regarding `Cc1cnc2ccc(NCCN(C)C)nn12` [Example 11, N^1,N^1-Dimethyl-N^2-(3-methylimidazo[1,2-b]pyridazin-6-yl)ethane-1,2-diamine], the IC50 in test [1] (setting [3]) worked out at 79 µM; in test [2], 36 µM.

As to `CCCC/C=C/c1cnc2ccc(NCCCN3CCN(C)CC3)nn12` [Example 38, (E)-3-(Hex-1-enyl)-N-(3-(4-methylpiperazin-1-yl)propyl)imidazo[1,2-b]pyridazin-6-amine hydrochloride], the half-inhibitory concentration (IC50) in test [1] (setting [3]) amounted to 97 µM; in test [2], 47 µM.

For `CCCC/C=C/c1cnc2ccc(NCCCCO)nn12` [Example 37, (E)-4-(3-(Hex-1-enyl)imidazo[1,2-b]pyridazin-6-ylamino)butan-1-ol hydrochloride], the IC50 came to 13 µM in test [1] (setting [3]) and 23 µM in test [2].

On to `OCc1cnc2ccc(NCc3ccccn3)nn12` [Example 25, (6-(Pyridin-2-ylmethylamino)imidazo[1,2-b]pyridazin-3-yl)methanol hydrochloride], for which the IC50 in test [1] (setting [3]) and in test [2] was above 100 µM in each case.

For the compound `COCc1cnc2ccc(NCCCN3CCOCC3)nn12` [Example 30, 3-(Methoxymethyl)-N-(3-morpholinopropyl)imidazo[1,2-b]pyridazin-6-amine hydrochloride], the IC50 in test [1] (setting [3]) and in test [2] was above 100 µM each time.

On to `Cc1n[nH]c2ccc(-c3cnc4ccc(N5CCNCC5)nn34)cc12` [Example 52, 3-(3-Methyl-1H-indazol-5-yl)-6-piperazin-1-yl-imidazo[1,2-b]pyridazine trihydrochloride], for which the IC50 turned out to be 0.014 µM in test [1] (setting [3]) and 0.027 µM in test [2].

On to `CCCC/C=C/c1cnc2ccc(NCc3cnc(C)cn3)nn12` [Example 44, (E)-3-(Hex-1-enyl)-N-((5-methylpyrazin-2-yl)methyl)imidazo[1,2-b]pyridazin-6-amine], for which the IC50 in test [1] (setting [3]) was 34 µM; in test [2] it was 22 µM.

For the compound `OCc1cnc2ccc(NCCCN3CCOCC3)nn12` [Example 24, (6-(3-Morpholinopropylamino)imidazo[1,2-b]pyridazin-3-yl)methanol hydrochloride], the IC50 in test [1] (setting [3]) and in test [2] was above 100 µM in each case.

`CCCC/C=C/c1cnc2ccc(NCCCO)nn12` [Example 6, (E)-3-(3-(Hex-1-enyl)imidazo [1,2-b]pyridazin-6-ylamino)propan-1-ol fumarate]: the IC50 in test [1] (setting [3]) was 33 µM; in test [2], 30 µM.

As for `CCCCCCc1cnc2ccc(NCCCN3CCOCC3)nn12` [Example 17, 3-Hexyl-N-(3-morpholinopropyl)imidazo[1,2-b]pyridazin-6-amine hydrochloride], the IC50 is above 100 µM in test [1] (setting [3]) and 28 µM in test [2].

For `CCCC/C=C/c1cnc2ccc(NCCN(C)C)nn12` [Example 8, (E)-N^1-(3-(Hex-1-enyl)imidazo[1,2-b]pyridazin-6-yl)-N^2,N^2-dimethylethane-1,2-diamine fumarate], the values for the IC50 in test [1] (setting [3]) and in test [2] were 65 µM and 58 µM, respectively.

`CCOCc1cnc2ccc(NCc3ccccn3)nn12` [Example 32, 3-(Ethoxymethyl)-N-(pyridin-2-ylmethyl)imidazo[1,2-b]pyridazin-6-amine hydrochloride]: the IC50 in test [1] (setting [3]) and in test [2] was above 100 µM throughout.

In the case of `CCCC/C=C/c1cnc2ccc(NCc3cccnc3)nn12` [Example 45, (E)-3-(Hex-1-enyl)-N-(pyridin-3-ylmethyl)imidazo[1,2-b]pyridazin-6-amine], the IC50 in test [1] (setting [3]) was found to be 4.7 µM; in test [2] it was 2.3 µM.

Turning to `COc1ccccc1-c1cnc2ccc(NCc3ccccn3)nn12` [Example 2, 3-(2-Methoxyphenyl)-N-(pyridin-2-ylmethyl)imidazo[1,2-b]pyridazin-6-amine fumarate], the IC50 in test [1] (setting [3]) and in test [2] was above 100 µM each time.

As to `CCCNc1ccc2ncc(-c3cc(C)cs3)n2n1` [Example 4, 3-(4-Methylthiophen-2-yl)-N-propylimidazo[1,2-b]pyridazin-6-amine], the IC50 in test [1] (setting [3]) and in test [2] was above 100 µM in each case.

For the compound `CCCC/C=C/c1cnc2ccc(N[C@H]3CC[C@H](O)CC3)nn12` [Example 49, Anti-(E)-4-(3-(Hex-1-enyl)imidazo[1,2-b]pyridazin-6-ylamino)cyclohexanol], the results for the IC50 in test [1] (setting [3]) and in test [2] were 29 µM and 13 µM, respectively.

Regarding `CCCC/C=C/c1cnc2ccc(NCCCN(C)C)nn12` [Example 39, (E)-N^1-(3-(Hex-1-enyl)imidazo[1,2-b]pyridazin-6-yl)-N^3,N^3-dimethylpropane-1,3-diamine hydrochloride], the figures for the IC50 in test [1] (setting [3]) and in test [2] were 0.77 µM and 1.1 µM, respectively.

Turning to `CCCC/C=C/c1cnc2ccc(NCc3ccncc3)nn12` [Example 43, (E)-3-(Hex-1-enyl)-N-(pyridin-4-ylmethyl)imidazo[1,2-b]pyridazin-6-amine], the results for the IC50 in test [1] (setting [3]) and in test [2] were 11 µM and 4.3 µM, respectively.

`CCCC/C=C/c1cnc2ccc(NCCOC)nn12` [Example 7, (E)-3-(Hex-1-enyl)-N-(2-methoxyethyl)imidazo[1,2-b]pyridazin-6-amine fumarate]: the 50% inhibitory concentration (IC50) in test [1] (setting [3]) came to 20 µM; in test [2] it was 35 µM.

Turning to `CCCC/C=C/c1cnc2ccc(NC(CC)CO)nn12` (stereo not shown) [Example 10, (E)-2-(3-(Hex-1-enyl)imidazo[1,2-b]pyridazin-6-ylamino)butan-1-ol], the figures for the IC50 in test [1] (setting [3]) and in test [2] were above 100 µM and 78 µM, respectively.

For `CCCC/C=C/c1cnc2ccc(NCCCN3CCCC3)nn12` [Example 47, (E)-3-(Hex-1-enyl)-N-(3-(pyrrolidin-1-yl)propyl)imidazo[1,2-b]pyridazin-6-amine dihydrochloride], the IC50 was found to be 38 µM in test [1] and 59 µM in test [2].

`Cc1cnc2ccc(NCCCN3CCOCC3)nn12` [Example 16, 3-Methyl-N-(3-morpholinopropyl)imidazo[1,2-b]pyridazin-6-amine fumarate]: the IC50 in test [1] (setting [3]) and in test [2] was above 100 µM throughout.

Take `CCCCC/C=C/c1cnc2ccc(NCCCN3CCOCC3)nn12` [Example 22, (E)-3-(Hept-1-enyl)-N-(3-morpholinopropyl)imidazo[1,2-b]pyridazin-6-amine hydrochloride]: the results for the IC50 in test [1] (setting [3]) and in test [2] were 120 µM and 38 µM, respectively.

As for `C1=C(c2cnc3ccc(NCc4ccccn4)nn23)CCCC1` [Example 21, 3-Cyclohexenyl-N-(pyridin-2-ylmethyl)imidazo[1,2-b]pyridazin-6-amine hydrochloride], the results for the IC50 in test [1] (setting [3]) and in test [2] were 200 µM and above 100 µM, respectively.

For `c1cc2[nH]ncc2cc1-c1cnc2ccc(N3CCNCC3)nn12` [Example 51, 3-(1H-Indazol-5-yl)-6-piperazin-1-yl-imidazo[1,2-b]pyridazine dihydrochloride], the results for the IC50 in test [1] (setting [3]) and in test [2] were 0.0035 µM and 0.12 µM, respectively.

Take `COCc1cnc2ccc(NCc3ccccn3)nn12` [Example 34, hydrochloride]: the IC50 in test [1] (setting [3]) and in test [2] was above 100 µM in each case.

Regarding `Clc1cnc2ccc(NCCCN3CCOCC3)nn12` [Example 14, 3-Chloro-N-(3-morpholinopropyl)imidazo[1,2-b]pyridazin-6-amine hydrochloride], the midpoint of inhibition in test [2], the IC50, lay at 37 µM.
